# According to ChEMBL document CHEMBL1128111, “Synthesis and biological activity of a series of 4-aryl substituted benz[b]azepines: Antagonists at the strychnine-insensitive glycine site” (Bioorg Med Chem Lett, 1995):
# Activity calls are given as the source filed them. The calls are words filed in the database; no cut-off is given here.
# Target: T1, Glutamate NMDA receptor (Rattus norvegicus) (UniProt P35439+Q00959+Q00960+Q00961+Q62645+Q8VHN2+Q9R1M7)
# Assay: The compound was tested in vivo for its effect on the NMDA receptor complex following administration by iv infusion in red nucleus assay
# Format: organism-based
# Parameters: unit not given here
row,Activity,Compound
1,5,O=c1[nH]c2cc(Cl)ccc2c(O)c(-c2ccco2)c1=O
2,1.7,O=c1[nH]c2cc(Cl)ccc2c(O)c(-c2ccccn2)c1=O
3,9.9,COc1ccc(-c2c(O)c(=O)[nH]c3cc(Cl)ccc3c2=O)cc1
4,9.4,O=c1[nH]c2cc(Cl)ccc2c(O)c(-c2ccccc2)c1=O
5,5.6,O=c1[nH]c2cc(Cl)ccc2c(O)c(-c2cccs2)c1=O
6,2.8,COc1cccnc1-c1c(O)c(=O)[nH]c2cc(Cl)ccc2c1=O

# Target: T1, Glutamate NMDA receptor (Rattus norvegicus)
# Assay: The compound was tested in vivo for its effect on the NMDA receptor complex following administration by iv infusion in red nucleus assay; Inactive
# Format: organism-based
row,Activity,Compound
1,inactive,O=c1[nH]c2cc(Cl)ccc2c(O)c(-c2cccnc2)c1=O
